Experimental data: ChEMBL document CHEMBL1156784, “The permeation of amphoteric drugs through artificial membranes--an in combo absorption model based on paracellular and transmembrane permeability” (J Med Chem, 2010)

Tests used:
[1] = Oral bioavailability in human; conditions: in vivo
[2] = Permeability at pH 6.5 by PAMPA method
Homo sapiens = organism: Homo sapiens; test: Clearance in human assessed as liver blood flow; format: ADME, organism-based; conditions: in vivo
[3] = Octanol-water partition coefficient, log P of the compound

| Structure (SMILES) | bioavailability [1] | Papp [2] | LBF (Homo sapiens) | permeability [2] | logP [3] |
| --- | --- | --- | --- | --- | --- |
| Nc1ccc(O)c(C(=O)O)c1 [MESALAMINE] | 28% | 0.9 ×10⁻⁶ cm/s | – | – | – |
| CN(C)c1ccc(O)c2c1C[C@H]1C[C@H]3[C@H](N(C)C)C(O)=C(C(N)=O)C(=O)[C@@]3(O)C(O)=C1C2=O [MINOCYCLINE] | 100% | 50 ×10⁻⁶ cm/s | – | – | – |
| CN(C)[C@@H]1C(O)=C(C(N)=O)C(=O)[C@@]2(O)C(O)=C3C(=O)c4c(O)ccc(Cl)c4[C@@](C)(O)[C@H]3C[C@@H]12 [CHLORTETRACYCLINE] | 60% | 3.7 ×10⁻⁶ cm/s | – | – | – |
| NC(N)=Nc1nc(CSCCC(N)=NS(N)(=O)=O)cs1 [FAMOTIDINE] | 42% | 0.6 ×10⁻⁶ cm/s | 16% | – | – |
| Cc1cccc(Nc2ccncc2S(=O)(=O)NC(=O)NC(C)C)c1 [TORSEMIDE] | 80% | 22 ×10⁻⁶ cm/s | – | – | – |
| CCn1cc(C(=O)O)c(=O)c2cc(F)c(N3CCN(C)CC3)cc21 [PEFLOXACIN] | 95% | – | – | – | – |
| NCCCC[C@H](N[C@@H](CCc1ccccc1)C(=O)O)C(=O)N1CCC[C@H]1C(=O)O [LISINOPRIL ANHYDROUS] | 25% | – | – | – | – |
| C[N+](C)(C)C[C@H](O)CC(=O)[O-] [LEVOCARNITINE] | 10% | 1.3 ×10⁻⁶ cm/s | – | – | – |
| Nc1nc(O)c2ncn(COC(CO)CO)c2n1 [GANCICLOVIR] | 7.3% | – | – | – | – |
| CN(C)[C@@H]1C(O)=C(C(N)=O)C(=O)[C@@]2(O)C(O)=C3C(=O)c4c(O)ccc(Cl)c4[C@@H](O)[C@H]3C[C@@H]12 [DEMECLOCYCLINE] | 66% | 3.8 ×10⁻⁶ cm/s | – | – | – |
| CCn1cc(C(=O)O)c(=O)c2cc(F)c(N3CCNC(C)C3)c(F)c21 (stereo unspecified) [LOMEFLOXACIN] | 97% | – | – | 15 ×10⁻⁶ cm/s | – |
| CCn1cc(C(=O)O)c(=O)c2cc(F)c(N3CCNCC3)nc21 [ENOXACIN] | 89% | 7.7 ×10⁻⁶ cm/s | – | – | – |
| C[C@@H]1CN(c2c(F)c(N)c3c(=O)c(C(=O)O)cn(C4CC4)c3c2F)C[C@H](C)N1 [SPARFLOXACIN] | 92% | 42 ×10⁻⁶ cm/s | – | – | – |
| Cc1cnc(NC(=O)C2=C(O)c3ccccc3S(=O)(=O)N2C)s1 [MELOXICAM] | 89% | – | – | – | – |
| CN1C(C(=O)Nc2ccccn2)=C(O)c2ccccc2S1(=O)=O [PIROXICAM] | – | 20 ×10⁻⁶ cm/s | – | – | – |
| CC(C)(O/N=C(\C(=O)N[C@@H]1C(=O)N2C(C(=O)[O-])=C(C[n+]3ccccc3)CS[C@H]12)c1csc(N)n1)C(=O)O [CEFTAZIDIME] | 0% | 0.2 ×10⁻⁶ cm/s | – | – | – |
| C[C@H]1c2cccc(O)c2C(=O)C2=C(O)[C@]3(O)C(=O)C(C(N)=O)=C(O)[C@@H](N(C)C)[C@@H]3[C@@H](O)[C@@H]21.O [DOXYCYCLINE] | – | 20 ×10⁻⁶ cm/s | – | – | – |
| CN(C)[C@@H]1C(O)=C(C(N)=O)C(=O)[C@@]2(O)C(O)=C3C(=O)c4c(O)cccc4[C@@](C)(O)[C@H]3C[C@@H]12 [TETRACYCLINE] | 78% | 3.8 ×10⁻⁶ cm/s | – | – | – |
| Nc1nc2c(ncn2COCCO)c(=O)[nH]1 [ACYCLOVIR] | – | 0.8 ×10⁻⁶ cm/s | – | – | – |
| COc1cccc2c1C(=O)c1c(O)c3c(c(O)c1C2=O)C[C@@](O)(C(C)=O)C[C@@H]3O[C@H]1C[C@H](N)[C@H](O)[C@H](C)O1 [DAUNORUBICIN] | 0% | 0.3 ×10⁻⁶ cm/s | – | – | – |
| CCOC(=O)[C@H](CCc1ccccc1)N[C@H]1CCc2ccccc2N(CC(=O)O)C1=O [BENAZEPRIL] | 37% | 17 ×10⁻⁶ cm/s | – | – | – |
| CC1COc2c(N3CCN(C)CC3)c(F)cc3c(=O)c(C(=O)O)cn1c23 (stereo unspecified) [OFLOXACIN] | 90% | – | – | – | – |
| COCc1c(C(C)C)nc(C(C)C)c(/C=C/[C@@H](O)C[C@@H](O)CC(=O)O)c1-c1ccc(F)cc1 [CERIVASTATIN] | 60% | – | 10% | – | – |
| CC(C)(C)NCC(O)c1cc(O)cc(O)c1 (stereo unspecified) [TERBUTALINE] | 14% | 1.4 ×10⁻⁶ cm/s | – | – | – |
| CC1(C)S[C@@H]2[C@H](/N=C/N3CCCCCC3)C(=O)N2[C@H]1C(=O)O [AMDINOCILLIN] | 10% | 0.9 ×10⁻⁶ cm/s | – | – | – |
| Nc1ccc(S(=O)(=O)Nc2ncccn2)cc1 [SULFADIAZINE] | 100% | 1.2 ×10⁻⁶ cm/s | – | – | -0.08 |
| COc1c(N2CCNC(C)C2)c(F)cc2c(=O)c(C(=O)O)cn(C3CC3)c12 (stereo unspecified) [GATIFLOXACIN] | – | 20 ×10⁻⁶ cm/s | – | – | – |
| N[C@@H](Cc1ccc(N(CCCl)CCCl)cc1)C(=O)O | – | 84 ×10⁻⁶ cm/s | 30% | – | – |
| N[C@@H]1[C@H]2CN(c3nc4c(cc3F)c(=O)c(C(=O)O)cn4-c3ccc(F)cc3F)C[C@@H]12 [TROVAFLOXACIN] | 88% | 57 ×10⁻⁶ cm/s | – | – | – |
